From patent US8551718B2 (Suven Life Science Limited, priority 2009, dated 2013)
Like-named read-outs stand apart in the source and are kept apart here.

Legend:
[1] = molecular target: T1, adrenergic alpha1b receptor (Homo sapiens, UniProt P35368); assay: Radioligand (SPA) competition binding assay, [3H]Prazosin; settings: for Binding to alpha1b receptor (in words): radioligand binding assay using SPA beads
T1 sequence (P35368 1-520): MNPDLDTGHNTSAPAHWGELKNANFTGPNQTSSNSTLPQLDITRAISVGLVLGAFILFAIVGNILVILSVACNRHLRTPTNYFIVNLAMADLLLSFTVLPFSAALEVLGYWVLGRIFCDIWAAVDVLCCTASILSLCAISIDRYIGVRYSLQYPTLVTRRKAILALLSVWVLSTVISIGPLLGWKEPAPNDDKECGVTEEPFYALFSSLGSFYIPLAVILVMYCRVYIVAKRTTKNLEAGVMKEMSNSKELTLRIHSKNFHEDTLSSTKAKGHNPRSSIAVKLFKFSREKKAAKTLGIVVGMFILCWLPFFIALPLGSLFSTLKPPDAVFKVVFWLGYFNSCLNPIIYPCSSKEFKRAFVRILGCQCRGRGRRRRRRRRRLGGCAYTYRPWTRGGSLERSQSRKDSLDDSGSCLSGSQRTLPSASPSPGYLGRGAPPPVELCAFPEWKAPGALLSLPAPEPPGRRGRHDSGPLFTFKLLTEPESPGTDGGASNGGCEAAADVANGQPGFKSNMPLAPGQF

[2] = molecular target: T2, histamine H1 receptor (Homo sapiens, UniProt P35367); settings: for Blockade of histamine induced luciferase activity (in words): CHO-H1 cells, compound 10 μM with 10 μM histamine
T2 sequence (P35367 whole entry): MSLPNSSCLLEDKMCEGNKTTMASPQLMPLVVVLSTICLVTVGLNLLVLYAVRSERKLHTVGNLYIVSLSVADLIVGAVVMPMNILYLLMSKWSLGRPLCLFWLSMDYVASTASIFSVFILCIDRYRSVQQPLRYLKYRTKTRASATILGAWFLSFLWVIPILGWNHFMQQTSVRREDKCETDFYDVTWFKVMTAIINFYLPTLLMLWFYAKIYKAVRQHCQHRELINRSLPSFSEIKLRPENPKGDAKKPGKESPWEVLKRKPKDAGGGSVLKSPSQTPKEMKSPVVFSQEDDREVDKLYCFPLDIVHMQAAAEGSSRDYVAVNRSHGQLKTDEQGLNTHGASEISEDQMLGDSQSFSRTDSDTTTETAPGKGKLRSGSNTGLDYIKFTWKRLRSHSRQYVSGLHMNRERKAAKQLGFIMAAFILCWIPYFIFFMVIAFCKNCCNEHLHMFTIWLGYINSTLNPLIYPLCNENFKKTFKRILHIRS

[3] = molecular target: T3, 5-HT2A receptor (Homo sapiens, UniProt P28223); assay: CRE-Luc reporter gene functional assay in CHO-5HT2A cells; type: cell-based; parameters: expressed in transfected cells; host or cells: CHO cells (CHO-5HT2A), co-transfected with CRE-Luc reporter; settings: for Antagonism of serotonin induced luciferase activity (in words): compound 10 μM with 10 μM serotonin; for Dose response induction of luciferase activity (in words): up to the highest dose tested
T3 sequence (P28223 whole entry): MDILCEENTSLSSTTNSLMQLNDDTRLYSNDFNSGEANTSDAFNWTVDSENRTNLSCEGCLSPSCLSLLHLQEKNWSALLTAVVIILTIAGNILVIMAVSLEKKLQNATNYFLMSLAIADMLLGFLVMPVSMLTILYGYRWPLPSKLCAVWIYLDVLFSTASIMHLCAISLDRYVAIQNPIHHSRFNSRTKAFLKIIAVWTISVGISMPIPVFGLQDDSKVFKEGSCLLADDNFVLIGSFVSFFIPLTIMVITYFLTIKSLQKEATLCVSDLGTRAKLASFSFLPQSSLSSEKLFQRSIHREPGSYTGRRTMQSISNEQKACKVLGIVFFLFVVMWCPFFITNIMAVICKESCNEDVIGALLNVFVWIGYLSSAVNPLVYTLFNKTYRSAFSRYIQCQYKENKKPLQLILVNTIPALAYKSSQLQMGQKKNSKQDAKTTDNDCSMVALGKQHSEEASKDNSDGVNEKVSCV

[4] = molecular target: T1, adrenergic alpha1b receptor; assay: CRE-Luc reporter gene functional assay in CHO-α1b cells; type: cell-based; parameters: expressed in transfected cells; host or cells: CHO cells (CHO-α1b), co-transfected with CRE-Luc reporter; settings: for Blockade of epinephrine induced luciferase activity (in words): compound 10 μM with 10 μM epinephrine; for EC50: agonist mode, luciferase activity
[5] = molecular target: T2, histamine H1 receptor; settings: radioligand binding assay using SPA beads
[6] = molecular target: T3, 5-HT2A receptor; assay: Radioligand (SPA) competition binding assay, [3H]Ketanserin; settings: for Binding to 5-HT2A receptor (in words): radioligand binding assay using SPA beads
[7] = molecular target: T2, histamine H1 receptor; assay: biochemical
[8] = molecular target: T2, histamine H1 receptor; assay: cell-based
[9] = molecular target: T4, human adrenergic alpha1b receptor (Mesocricetus auratus, UniProt P18841); settings: CHO cells expressing human adrenergic alpha1b receptor, literature; cited from earlier work
T4 sequence (P18841 1-515): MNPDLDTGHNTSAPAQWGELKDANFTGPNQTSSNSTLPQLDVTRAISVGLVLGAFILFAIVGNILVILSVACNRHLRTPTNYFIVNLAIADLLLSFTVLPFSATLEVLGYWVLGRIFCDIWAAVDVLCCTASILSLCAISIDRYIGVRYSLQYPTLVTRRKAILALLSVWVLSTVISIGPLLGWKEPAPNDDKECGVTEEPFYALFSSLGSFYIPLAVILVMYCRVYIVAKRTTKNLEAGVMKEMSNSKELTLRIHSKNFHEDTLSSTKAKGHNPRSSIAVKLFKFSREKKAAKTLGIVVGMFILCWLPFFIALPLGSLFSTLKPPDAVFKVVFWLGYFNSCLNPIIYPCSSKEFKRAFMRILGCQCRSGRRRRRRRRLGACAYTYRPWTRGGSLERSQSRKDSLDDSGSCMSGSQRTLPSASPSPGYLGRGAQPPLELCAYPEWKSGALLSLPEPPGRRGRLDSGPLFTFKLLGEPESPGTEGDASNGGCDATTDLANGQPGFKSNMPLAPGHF

| Ki [1] | Antagonism of serotonin induced luciferase activity (in words) [3] | IC50 [4] | Kb [4] | Blockade of epinephrine induced luciferase activity (in words) ([4]; CHO-α1b cells) | Binding to H1 receptor (in words) [5] | Binding to 5-HT2A receptor (in words) [6] | Binding to alpha1b receptor (in words) [1] | EC50 ([4]; CHO-α1b cells, 0.1 to 10000 nM) | Compound | Dose response induction of luciferase activity (in words) [3] | further results |
| --- | --- | --- | --- | --- | --- | --- | --- | --- | --- | --- | --- |
| > 10 µM | did not show any impact | > 10 µM | > 10 µM | did not show any effect | no affinity | no affinity |  |  | O=C(O)COCCN1CCN(C(c2ccccc2)c2ccc(Cl)cc2)CC1 (centres unmarked) [Cetirizine] |  | Blockade of histamine induced luciferase activity (in words) [2]: inverse agonist property; Blockade of histamine induced luciferase activity (in words) ([2]; listed as cetirizine): completely blocked; Antagonism of serotonin induced luciferase activity, dose response study (in words) ([3]; compound 0.1 to 10,000 nM with 10 μM serotonin): none or partial antagonism; Antagonism of epinephrine induced luciferase activity, dose response study (in words) ([4]; CHO-α1b cells): did not show any antagonism |
|  |  |  | 0.000501 µM | completely blocked |  |  |  |  | CN(C)CCCN1c2ccccc2Sc2ccc(Cl)cc21 [Chlorpromazine] |  |  |
| > 10 µM |  |  |  |  |  | did not show any binding | did not show any binding | > 10 µM | NCCc1c[nH]cn1 [Histamine] | did not show the induction of luciferase activity | Dose response induction of luciferase activity (in words) [2]: dose proportionate increase in luciferase activity; EC50 ([3]; agonist mode, luciferase activity, 0.1 nM to 10,000 nM): > 10 µM; Dose response induction of luciferase activity (in words) ([4]; CHO-α1b cells, 0.1 to 10000 nM): did not respond; Ki [6]: > 10 µM |
| […] | fully antagonized | […] | […] | […] |  |  |  |  | O=C(c1ccc(F)cc1)C1CCN(CCn2c(=O)[nH]c3ccccc3c2=O)CC1 [Ketanserin] |  |  |
| > 10 µM |  |  |  |  | did not show any binding |  | did not show any binding | > 10 µM | NCCc1c[nH]c2ccc(O)cc12 [Serotonin] | specific dose response effect | Ki [7]: > 10 µM; EC50 [8]: > 10 µM |
|  |  |  |  |  |  |  |  |  | NC[C@H](O)c1ccc(O)c(O)c1 [norepinephrine] |  | pEC50 for cAMP accumulation [9]: 6.6 |
